Common to all, as to assay type: cell-based
The test system of assay [1] is human dermal fibroblasts (hDF) introduced with reprogramming genes. Kind of assay: Colony number of induced pluripotent stem cells by alkaline phosphatase (AP) staining. As to conditions: for dedifferentiation induction, graph counting and quantifying the number of colonies / AP-stained colonies: 10 μM peptide, 10 days at 24-hr intervals, FIG. 1; for AP-stained colonies: compared with cells without peptide and control peptides C1 or C2; for AP staining clarity: group treated with peptide, reported with FIG. 2. The text has this:
In order to verify the dedifferentiation induction efficiency of each peptide, the DNAs of reprogramming genes Oct3/4, Sox2, c-Myc, Klf4, and Lin28 were introduced to human dermal fibroblasts (hDF) of 1.5×10^5/well on a 6-well coated with […] of vitronectin recombinant human protein (VTN-N) by an electroporation method. According to a known method, the reprogramming genes were divided into three groups and cloned into three different episomal vectors and expressed together with p53 shRNA(pCXLE-hOCT3/4-shp53, pCXLE-hSK, and pCXLE-hUL) to enhance the establishment efficiency of dedifferentiation of stem cells (Okita, K. et al., Nat. Methods. 8(5):409-12, 2011). The cells introduced with the reprogramming genes were cultured in an Eagle's minimal essential medium (EMEM, ATCC) and the medium was replaced at 24-hr intervals until cell confluency became 50%. When the confluency became 50%, 10 μM of a dedifferentiation induction-promoting peptide and a control peptide were treated, respectively, and the medium was replaced with Essential 8 Medium and the peptides were treated at the same time as the medium replacement every 24 hrs. The peptide was treated for 10 days at 24-hr intervals, and in order to verify dedifferentiation efficiency per peptide, alkaline phosphatase (AP), known as a marker of embryonic stem cells, was used. For AP staining, an alkaline phosphatase detection kit(Milipore) was used. The medium was removed, 4% paraformaldehyde was added to the cells and they were immobilized for 2 minutes, a Naphthol/Fast Red Violet staining agent was added in a well and reacted at room temperature in a dark space for 20 minutes or more, and then the staining agent was washed with Dulbecco's phosphate buffered saline (DPBS) and the number of stained colonies was verified with a microscope.

For assay [2], the system named is human dermal fibroblasts introduced with reprogramming genes. The assay can be described thus: Mesenchymal-epithelial transition (MET) by THY1/EPCAM flow cytometry (FACS). As to conditions: 10 days of peptide treatment; compared with control peptides C1 or C2; FIG. 3. As for the experimental part:
Using the same method as in Example 2-1, reprogramming genes were introduced into the cells by an electroporation method in human dermal fibroblasts and divided in a 6-well coated with Vitronectin. After 10 days of peptide treatment in which the cells were stabilized, the cells were collected in a 15 ml Falcon tube by using a scrapper and then centrifuged for 3 minutes at 1500 rpm. The cells were washed with a buffer (PBS) and then 1.5×10^5 cells were transferred to each tube by using cold PBS. THY1 (cat: sc-59398) and EPCAM (cat: ab20160) antibodies at a concentration of 10 μg/ml were diluted with a 3% BSA/PBS solution in the tube and reacted for 30 minutes at 4° C., and then centrifuged three times for 5 minutes at 1500 rpm. After washing with cold PBS, the cells were transferred to a round tube and analyzed by flow cytometry (FACS). Before measuring samples, a control reference value was fixed using THY1 for human dermal fibroblasts and EPCAM for a human mammary epithelial cell (HMEC).

The test system is the same in assay [3]. Kind of assay: Oct4 embryonic stem cell marker expression by immunofluorescence (IF). The following applies: 10 μM peptide for 10 days; compared with cells without peptide and control peptides C1 or C2; FIG. 2. As to the method: Using the same method as in Example 2-1, reprogramming genes were introduced into the cells by an electroporation method in human dermal fibroblasts and divided in a 6-well coated with vitronectin. Thereafter, expression levels of Oct4 as a marker of embryonic stem cells were compared with each other by using an immunofluorescence (IF) method. The cells treated with 10 μM of each peptide for 10 days were fixed with 4% paraformaldehyde for 10 minutes at room temperature, and then 0.5% Triton-X 100 was added and they were cultured for 15 minutes at room temperature to pass through a cell wall and to penetrate into nuclei in the cells, and blocked with a buffer PBS in which 3% bovine serum albumin (BSA) was dissolved for 30 minutes. An Oct4 primary antibody was diluted with a buffer PBS in which 1% BSA was dissolved at a ratio of 1:100 and reacted for 16 hrs at 4° C. and a secondary antibody bound with fluorescein isothiocyanate (FITC) was diluted at a ratio of 1:200 and reacted for 1 hr at room temperature. Finally, a dye (Hoechst 33342, blue) for staining nuclei was treated for 10 minutes at room temperature and washed with a buffer PBS, and colonies with the clearest fluorescent expression in the well were photographed with a confocal scanning microscope (IX 70, Olympus Co., Tokyo, Japan).

With “GKCSTRGRKCMRRKK (Functional Peptide P2) [peptide P1 with the fifth cysteine of C terminal substituted with methionine]”, in assay [1], the “dedifferentiation induction, graph counting and quantifying the number of colonies” value (shortened to “dedifferentiation induction”) was “more efficiently induced dedifferentiation”; the AP-stained colonies result is given as “more colonies were stained”; the AP staining clarity result is on record as “clearer”. Also, the “change of mesenchymal shape of dermal fibroblasts to epithelial shape (THY1/EPCAM, FACS)” value (shortened to “change of mesenchymal shape … (THY1/EPCAM, FACS)”) in assay [2] is “significantly changed to an epithelial shape”. Further, the “Oct4 fluorescence expression (IF)” value in assay [3] is listed as “more fluorescence was expressed”.

In the case of “GKCSTRGRKCCRRKK (Functional Peptide P1) [dedifferentiation induction-promoting functional peptide]”, in assay [1], the “dedifferentiation induction” value is on record as “more efficiently induced dedifferentiation”; the AP-stained colonies result is on record as “more colonies were stained”; the AP staining clarity entry is on record as “clearer”. Besides, the “change of mesenchymal shape … (THY1/EPCAM, FACS)” value in assay [2] is on record as “significantly changed to an epithelial shape”. Besides, the “Oct4 fluorescence expression (IF)” value in assay [3] is “more fluorescence was expressed”.

Consider GKCSTRGRKMCRRKK [Peptide P3], for which, in assay [1], the “dedifferentiation induction” value is given as “more efficiently induced dedifferentiation”; the AP-stained colonies result was “more colonies were stained”; the AP staining clarity entry is on record as “clearer”. The “change of mesenchymal shape … (THY1/EPCAM, FACS)” value in assay [2] is on record as “significantly changed to an epithelial shape”. Moreover, the “Oct4 fluorescence expression (IF)” value in assay [3] is given as “more fluorescence was expressed”.

For the origin of these results see patent US10066212B2, “Method for preparing induced pluripotent stem cells using synthetic peptide” (Seoul National University R&DB Foundation, priority 2015, dated 2018).
